From patent US20260250322A1, “NEW PEPTIDES AS SELECTIVE IL-23 RECEPTOR INHIBITORS” (SANOFI, priority 2023, published 2026)
Numbered stars: 1 amine (or outer) side, 2 acyl side, 3 side chain; on linkers, the order of the positions; unused ones are H or OH. Bridge positions count the residues as written; N and C are the ends. Square brackets hold non-standard residues; d marks the D form. Primed or numbered codes have the meaning given here. Peptide text beside a SMILES is read from it. Phe(4-OMe) = Yme, 4-methoxy-L-phenylalanine (O-methyl-tyrosine), COc1ccc(C[C@H](N[*:1])C(=O)[*:2])cc1; Tyr(Me) = Yme = 4-methoxy-L-phenylalanine (O-methyl-tyrosine), COc1ccc(C[C@H](N[*:1])C(=O)[*:2])cc1; Tyr(Me)″ = O-methyl-tyrosine (4-methoxy-phenylalanine), COc1ccc(C[C@H](N[*:1])C(=O)[*:2])cc1; 1Nal = N[C@@H](Cc1cccc2ccccc12)C(=O)O; 2Nal = N[C@@H](Cc1ccc2ccccc2c1)C(=O)O; Agb = N=C(N)NCC[C@H](N)C(=O)O; dOrn = NCCC[C@@H](N)C(=O)O; Thp = NC1(C(=O)O)CCOCC1; Aib = CC(C)(N)C(=O)O; Ahx = NCCCCCC(=O)O

Key:
human IL-23R = target: T1, human IL-23R (Homo sapiens, UniProt Q5VWK5); test: Human ELISA IL-23/IL-23R binding inhibition; conditions: human IL-23 coated, recombinant human IL-23R-Fc chimera
T1 sequence (Q5VWK5 24-355 limits assumed): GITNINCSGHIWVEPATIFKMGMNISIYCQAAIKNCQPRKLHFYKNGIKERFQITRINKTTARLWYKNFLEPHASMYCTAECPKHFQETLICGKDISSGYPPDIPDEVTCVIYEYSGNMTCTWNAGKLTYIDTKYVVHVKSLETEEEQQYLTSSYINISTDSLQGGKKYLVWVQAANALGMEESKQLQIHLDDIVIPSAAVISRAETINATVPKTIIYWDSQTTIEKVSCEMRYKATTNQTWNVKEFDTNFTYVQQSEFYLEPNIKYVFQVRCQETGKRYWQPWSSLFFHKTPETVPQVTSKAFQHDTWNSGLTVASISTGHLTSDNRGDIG
Outline: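 Plates coated with human IL-23 at 1 μg/ml overnight at 4° C; serially diluted peptides added with recombinant human IL-23R-Fc at 0.1 μg/ml final, 60 min at RT. Bound receptor detected with anti-human IgG1-HRP and a fluorogenic peroxidase substrate.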

[1] = Chemical stability (relative purity loss) of peptide compounds in buffer formulations; assay type: physicochemical
Experimental: Purity of a compound batch was determined through UHPLC/MS prior to chemical stability measurement using Method A.
For stability assessment, the target concentration was 300 μM pure compound. Therefore, solutions from solid samples were prepared in the following buffer systems with a concentration of ~300 µM compound based on the previously determined % purity. The solid samples were obtained by drying down aliquots of a freshly prepared acetonitrile stock solution using a THERMO SPEEDVAC vacuum centrifuge. The dry down time was 3 hours.
The following buffer systems were applied: • Solubility buffer system A) 100 mM phosphate buffer pH 7.4. • Solubility buffer system B) 100 mM phosphate buffer pH 6.5. • Solubility buffer system C) 100 mM HCl pH 1.2.
Prepared solutions were filtered through […] pore size and filled into sterilized glass containers under laminar flow conditions.
[…] After this time course, the samples were centrifuged for 15 min at 2500 RCF. Then 1.5 μl of the undiluted supernatant were analysed with UHPLC-UV.
The chemical stability was rated through the relative loss of purity calculated by the equation:
[(purity after 0 hours at 37° C.)(purity after 24 hours at 37° C.)]/(purity after 0 hours at 37° C.)]*100%.
The purity is calculated as [(peak area peptide)/(total peak area)]*100%.
Buffer composition: 100 mM HCl pH 1.2, 100 mM phosphate buffer pH 6.5, 100 mM phosphate buffer pH 7.4

[2] = tested on: IL-23 induced STAT3 signaling; test: Inhibition of IL-23 induced STAT3 signaling in HEK-Blue IL-23 cells (SEAP reporter); assay type: cell-based; conditions: human IL-23 0.25 ng/ml, read-out: Inhibition of IL-23 induced pSTAT3 (IC50 nM)
Outline: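 HEK-Blue IL-23 cells (10,000/well) preincubated 60 min at 37 °C with serially diluted compound, then stimulated overnight with human IL-23 (0.25 ng/ml final). STAT3-driven SEAP in supernatant read with QUANTI-Blue after 45 min at room temperature, OD 620-655 nm; dose-response fitted.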

[3] = target: T2, recombinant human IL-23R-Fc chimera (human, UniProt Q5VWK5 24-353, limits assumed); test: competition ELISA: coated human IL-23, IL-23R-Fc 0.1 ug/ml, peptide titrated
T2 construct: Recombinant reagent; also called interleukin-23 receptor; not shown: detected with goat anti-hu-IgG1-HRP antibody
T2 sequence (looked up): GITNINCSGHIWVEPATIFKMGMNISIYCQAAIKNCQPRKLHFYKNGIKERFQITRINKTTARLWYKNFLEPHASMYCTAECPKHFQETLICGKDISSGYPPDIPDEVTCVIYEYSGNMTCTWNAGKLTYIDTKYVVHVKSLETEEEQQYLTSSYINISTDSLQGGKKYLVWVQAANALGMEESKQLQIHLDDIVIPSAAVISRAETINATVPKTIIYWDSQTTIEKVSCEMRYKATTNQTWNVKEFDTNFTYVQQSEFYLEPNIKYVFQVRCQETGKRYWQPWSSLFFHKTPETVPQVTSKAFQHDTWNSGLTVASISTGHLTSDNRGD
Experimental: Antagonism of peptide compounds for human interleukin-23 receptor inhibitors, was determined by an ELISA assay.
A 384-well plate was coated with 50 μl/well of human IL-23 at a final concentration of 1 μg/ml and incubated overnight at 4° C. The wells were washed 3 times with 80 μl wash buffer and blocked with 80 μl blocking buffer for 60 minutes at room temperature and washed again. 20 μl of serially diluted test peptides was added to each well and subsequently 20 μl of recombinant human IL-23R-Fc chimera at final concentration of 0.1 μg/ml. The plate was incubated for 60 minutes at room temperature. After the wells were washed, bound IL-23R-Fc was detected with goat anti-hu-lgG1-HRP antibody. Signals were visualized with QuantaBlu Fluorogenic Peroxidase Substrate.

[4] = target: T3, IL-23 receptor on the surface of HEK-Blue IL-23 cells (UniProt Q5VWK5 24-629, limits assumed); test: cell-based or functional assay
T3 sequence (looked up): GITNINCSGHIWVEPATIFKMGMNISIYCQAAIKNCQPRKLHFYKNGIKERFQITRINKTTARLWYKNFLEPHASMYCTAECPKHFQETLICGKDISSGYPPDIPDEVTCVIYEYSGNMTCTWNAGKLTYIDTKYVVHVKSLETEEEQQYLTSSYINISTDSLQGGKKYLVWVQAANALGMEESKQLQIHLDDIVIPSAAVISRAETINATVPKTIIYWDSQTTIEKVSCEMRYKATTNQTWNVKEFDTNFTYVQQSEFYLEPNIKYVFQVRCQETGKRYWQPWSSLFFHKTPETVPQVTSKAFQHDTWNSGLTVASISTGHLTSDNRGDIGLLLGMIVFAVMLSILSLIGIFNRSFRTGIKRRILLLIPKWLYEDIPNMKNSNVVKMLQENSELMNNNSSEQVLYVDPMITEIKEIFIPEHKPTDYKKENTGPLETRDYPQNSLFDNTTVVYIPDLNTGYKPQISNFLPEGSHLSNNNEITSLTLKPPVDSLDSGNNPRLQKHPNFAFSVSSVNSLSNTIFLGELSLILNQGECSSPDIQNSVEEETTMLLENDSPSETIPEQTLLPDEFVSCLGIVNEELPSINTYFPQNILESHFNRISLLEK

[5] = pH 6.5 (100 mM phosphate buffer)
[6] = pH 7.4 (100 mM phosphate buffer)

COc1ccc(C[C@@H]2NC(=O)[C@H](C)NC(=O)[C@H](CCC(N)=O)NC(=O)[C@H](Cc3c[nH]c4ccccc34)NC(=O)[C@H]([C@@H](C)O)NC(=O)[C@H](CC(N)=O)NC(=O)[C@H](NC(C)=O)CCCCNC(=O)C[C@@H](C(=O)N[C@@H](CC(N)=O)C(=O)N[C@@H](CC(N)=O)C(N)=O)NC(=O)C(C)(C)NC(=O)[C@H](Cc3cccc4ccccc34)NC2=O)cc1 [compound 8] (Ac-[dK]NTWQAY(Me)[1Nal][Aib]DNN-NH2; lactam 1-10)
IC50 (human IL-23R): 2.74 nM | Conc. [mg/ml] 0 h ([1]; pH 1.2 (100 mM HCl)): 0.2 mg/mL | Conc. [mg/ml] 24 h 37° C. ([1]; pH 1.2 (100 mM HCl)): 0.2 mg/mL | Mass Balance [%] 24 h 37° C. ([1]; pH 1.2 (100 mM HCl)): −2.5% | Relative Purity Loss [%] 24 h 37° C. ([1]; pH 1.2 (100 mM HCl)): 26.2% | Conc. [mg/ml] 0 h [1, 5]: 0.2 mg/mL | Conc. [mg/ml] 24 h 37° C. [1, 5]: 0.2 mg/mL | Mass Balance [%] 24 h 37° C. [1, 5]: 4.1% | Relative Purity Loss [%] 24 h 37° C. [1, 5]: −1.4% | Conc. [mg/ml] 0 h [1, 6]: 0.2 mg/mL | Conc. [mg/ml] 24 h 37° C. [1, 6]: 0.2 mg/mL | Mass Balance [%] 24 h 37° C. [1, 6]: 4.6% | Relative Purity Loss [%] 24 h 37° C. [1, 6]: 2.0% | IC50 [2]: 943 nM

B1: peptide compound SEQ ID NO: 39 (peptide)
peptide: Ac-[dK]NTWQ[Agb][Phe(4-OMe)][2Nal][Aib]DNN-NH2
modifications: lactam 1-10
SMILES: COc1ccc(C[C@@H]2NC(=O)[C@H](CCNC(=N)N)NC(=O)[C@H](CCC(N)=O)NC(=O)[C@H](Cc3c[nH]c4ccccc34)NC(=O)[C@H]([C@@H](C)O)NC(=O)[C@H](CC(N)=O)NC(=O)[C@H](NC(C)=O)CCCCNC(=O)C[C@@H](C(=O)N[C@@H](CC(N)=O)C(=O)N[C@@H](CC(N)=O)C(N)=O)NC(=O)C(C)(C)NC(=O)[C@H](Cc3ccc4ccccc4c3)NC2=O)cc1
IC50 [3]: 1.46 nM

B2: peptide compound SEQ ID NO: 47 (peptide)
peptide: Ac-[dK]NTWQA[Tyr(Me)″][2Nal]RDNN-NH2
modifications: lactam 1-10
SMILES: COc1ccc(C[C@@H]2NC(=O)[C@H](C)NC(=O)[C@H](CCC(N)=O)NC(=O)[C@H](Cc3c[nH]c4ccccc34)NC(=O)[C@H]([C@@H](C)O)NC(=O)[C@H](CC(N)=O)NC(=O)[C@H](NC(C)=O)CCCCNC(=O)C[C@@H](C(=O)N[C@@H](CC(N)=O)C(=O)N[C@@H](CC(N)=O)C(N)=O)NC(=O)[C@H](CCCNC(=N)N)NC(=O)[C@H](Cc3ccc4ccccc4c3)NC2=O)cc1
notes: synthetic macrolactam
IC50 [3]: 1.34 nM

B3: peptide compound SEQ ID NO: 11 (peptide)
peptide: Ac-[dD]NTWQR[Tyr(Me)][1Nal][Aib]KNN-NH2
modifications: lactam 1-10
SMILES: COc1ccc(C[C@@H]2NC(=O)[C@H](CCCNC(=N)N)NC(=O)[C@H](CCC(N)=O)NC(=O)[C@H](Cc3c[nH]c4ccccc34)NC(=O)[C@H]([C@@H](C)O)NC(=O)[C@H](CC(N)=O)NC(=O)[C@H](NC(C)=O)CC(=O)NCCCC[C@@H](C(=O)N[C@@H](CC(N)=O)C(=O)N[C@@H](CC(N)=O)C(N)=O)NC(=O)C(C)(C)NC(=O)[C@H](Cc3cccc4ccccc34)NC2=O)cc1
IC50 [3]: 18.9 nM | Inhibition of IL-23 induced pSTAT3 (IC50 nM) [4]: 9280 nM

B4: peptide compound SEQ ID NO: 40 (peptide)
peptide: [Ahx]NTWQ[Agb][Phe(4-OMe)][2Nal][Aib]ENN-NH2
modifications: lactam N-10
SMILES: COc1ccc(C[C@@H]2NC(=O)[C@H](CCNC(=N)N)NC(=O)[C@H](CCC(N)=O)NC(=O)[C@H](Cc3c[nH]c4ccccc34)NC(=O)[C@H]([C@@H](C)O)NC(=O)[C@H](CC(N)=O)NC(=O)CCCCCNC(=O)CC[C@@H](C(=O)N[C@@H](CC(N)=O)C(=O)N[C@@H](CC(N)=O)C(N)=O)NC(=O)C(C)(C)NC(=O)[C@H](Cc3ccc4ccccc4c3)NC2=O)cc1
IC50 [3]: 3.11 nM

B5: peptide compound SEQ ID NO: 16 (peptide)
peptide: Ac-[dK]NTWQR[Tyr(Me)][1Nal][Aib]ENN-NH2
modifications: lactam 1-10
SMILES: COc1ccc(C[C@@H]2NC(=O)[C@H](CCCNC(=N)N)NC(=O)[C@H](CCC(N)=O)NC(=O)[C@H](Cc3c[nH]c4ccccc34)NC(=O)[C@H]([C@@H](C)O)NC(=O)[C@H](CC(N)=O)NC(=O)[C@H](NC(C)=O)CCCCNC(=O)CC[C@@H](C(=O)N[C@@H](CC(N)=O)C(=O)N[C@@H](CC(N)=O)C(N)=O)NC(=O)C(C)(C)NC(=O)[C@H](Cc3cccc4ccccc34)NC2=O)cc1
IC50 [3]: 5.74 nM | Inhibition of IL-23 induced pSTAT3 (IC50 nM) [4]: 8010 nM

B6: peptide compound SEQ ID NO: 27 (peptide)
peptide: Ac-[dOrn]NTWQR[Tyr(Me)][2Nal][Aib]DNN-NH2
modifications: lactam 1-10
SMILES: COc1ccc(C[C@@H]2NC(=O)[C@H](CCCNC(=N)N)NC(=O)[C@H](CCC(N)=O)NC(=O)[C@H](Cc3c[nH]c4ccccc34)NC(=O)[C@H]([C@@H](C)O)NC(=O)[C@H](CC(N)=O)NC(=O)[C@H](NC(C)=O)CCCNC(=O)C[C@@H](C(=O)N[C@@H](CC(N)=O)C(=O)N[C@@H](CC(N)=O)C(N)=O)NC(=O)C(C)(C)NC(=O)[C@H](Cc3ccc4ccccc4c3)NC2=O)cc1
IC50 [3]: 19.7 nM

B7: peptide compound SEQ ID NO: 51 (peptide)
peptide: Ac-[dK]NTWQA[Phe(4-OMe)][2Nal][Thp]DNN-NH2
modifications: lactam 1-10
SMILES: COc1ccc(C[C@@H]2NC(=O)[C@H](C)NC(=O)[C@H](CCC(N)=O)NC(=O)[C@H](Cc3c[nH]c4ccccc34)NC(=O)[C@H]([C@@H](C)O)NC(=O)[C@H](CC(N)=O)NC(=O)[C@H](NC(C)=O)CCCCNC(=O)C[C@@H](C(=O)N[C@@H](CC(N)=O)C(=O)N[C@@H](CC(N)=O)C(N)=O)NC(=O)C3(CCOCC3)NC(=O)[C@H](Cc3ccc4ccccc4c3)NC2=O)cc1
IC50 [3]: 0.78 nM
